Marks after values point to notes of the source that are not given here. Some results are limits rather than exact numbers.

This note sets out measurements from patent EP0366226A1, “Stabilized thiocarbonate solutions and the use thereof for controlling soil pests” (UNION OIL COMPANY OF CALIFORNIA, priority 1988, dated 1990).

Data set [1] in a line: Effect of pH on production of CS2 from thiocarbonates in citrate-phosphate buffers (gas chromatography of air). The format is physicochemical. How it is done: Pure carbon disulfide was also injected, for comparison. A syringe was used to periodically sample air in the bottle, and the air was analyzed by gas chromotography.
Data set [2] is described as follows: Degradation time in sandy loam soil at different moisture (CS2 in air space by gas chromatography). In kind it is physicochemical. As to the method:
A sandy loam soil was placed in 1-liter glass bottles, fitted with stoppers having fluorocarbon liners and silicone rubber septa, to give a soil depth of about 4 cm. Water was added to the soil, in quantities to obtain 50 and 100 percent soil saturation. Thiocarbonate solution or carbon disulfide was then injected near the bottom of the soil layer, the bottles were promptly sealed, and the air space in the bottles was sampled at intervals with a syringe, for gas chromatographic analysis of CS₂. The results are summarized below, wherein degradation time is the number of hours required to achieve the maximum CS₂ concentration in the air space.

Data set [3] in a line: Rate of carbon disulfide loss from solutions on nitrogen bubbling (mass spectrometer). The note with it: undiluted (pure CS2; Ex. 1 100%). In kind it is physicochemical. As to the method:
The rate at which carbon disulfide is lost from diluted ammonium thiocarbonate compositions was determined by bubbling nitrogen through the solutions and measuring the carbon disulfide content of the gas which leaves the solution using a mass spectrometer.
In the determination, the solution, corresponding to that of Example 1 (containing 14.1 percent by weight carbon disulfide), was compared to pure carbon disulfide, and to serial dilutions of the Example 1 solution with water, which were 10, 1 and 0.1 volume percent solutions of the original composition. The results are tabulated below, wherein k is the calculated first order rate constant for loss of carbon disulfide, and t is the solution half-life.

The nature of data set [4]: Solvency of aqueous thiocarbonate solutions for urea. The format is physicochemical. The note with it: 41.5 percent by weight aqueous solution; room temperature. As to the method: Urea was added to a 41.5 percent, by weight, aqueous solution of calcium tetrathiocarbonate until the solubility limit of urea was reached. At room temperature, the solution dissolved 122 percent by weight urea. The resulting solution was 55 percent urea, 18.6 percent calcium tetrathiocarbonate, and 26.3 percent water, by weight. Thus, the solvency of the aqueous solution of calcium tetrathiocarbonate for urea was at least as great as that of water alone. Similarly, a 46 percent solution of potassium tetrathiocarbonate dissolved 100 percent of its own weight of urea. Similar results were obtained with other tri- and tetrathiocarbonates of alkali metal and alkaline earth metals.

For data set [5], the system named is nitrification of ammoniacal fertilizers in soil. The data set can be described thus: Inhibition of nitrification of urea in sandy loam soil plots. The note with it: 5 weight percent solution at 100 liters per acre after 200 lbs. urea per acre; versus untreated plot. An excerpt:
The ability of the described thiocarbonate compounds to inhibit nitrification of ammoniacal fertilizers in soil can be illustrated by applying to two separate plots of sandy loam soil a urea solution in irrigation water at a rate corresponding to 200 lbs. urea per acre with sufficient water to increase the soil water content to at least 50 percent. This application can be followed, on one of the plots treated with the urea solution and within one hour of application of the urea solution, with application of an aqueous solution containing 5 weight percent calcium tetrathiocarbonate applied at a rate of 100 liters per acre in sufficient irrigation water to increase the soil water content to 100 percent of saturation.

Another data set concerns Fusarium spp. Put plainly: Petri dish tests in potato dextrose agar and broth. The format is cell-based. Conditions: when the broth also contained Trichoderma spp., read-out: solution concentration with which control was obtained. From the text: In petri dish tests of CaCS₄ against the fungus Fusarium spp., control with solutions containing less than about 10 grams per liter of the compound, in both potato dextrose agar and potato dextrose broth, was obtained using the solution when the broth also contained another fungus, Trichoderma spp.

For another data set, the system named is Sclerotium rolfsii. The data set can be described thus: Fungicidal test, radial growth of mycelia from treated agar blocks. The format is cell-based. The note with it: listed as CaCS₄ (2.8%CS₂). How it is done:
(§1) Thiocarbonate solutions were used in a test of their fungicidal properties. Cultures of four plant pathogenic fungi were grown upon potato dextrose agar at room temperature, in diffuse natural lighting. After one week, square blocks having 2 millimeter sides were cut from the edges of actively drawings mycelia spots on the agar.
(§2) The blocks were immersed in sterile deionized water, as a control, or in dilutions of thiocarbonate solutions using the sterile water, in a closed container. Subsequently, the blocks were removed and placed upon agar in clean plates, and mycelia were allowed to grow for one week.
(§3) Radial growth of mycelia colonies was measured for each of the six to eight replicate plates used for a particular fungus, and average colony radius was calculated. Percent control is defined by the following equation: […]
(§4) Concentrations given for solutions used to treat the agar blocks are expressed in grams of thiocarbonate solution per liter of diluted solution.

The test system of the next data set is Verticillium dahliae. The description is as above. Conditions: listed as CaCS₄ (2.8%CS₂). In kind it is cell-based. How it is done:
as §1, §2, §3, §4

The subject of a further data set is Fusarium oxysporum. Described as above. The note with it: listed as CaCS₄ (2.8%CS₂). In kind it is cell-based. As to the method: as §1, §2, §3, §4
A further data set relates to Phytophthora cinnamomi. Described as above. The format is cell-based. Conditions: listed as CaCS₄ (2.8%CS₂). How it is done:
as §1, §2, §3, §4

The test system of data set [6] is sugar beet cyst nematodes (Heterodera spp.). The data set can be described thus: Soil treatment of infested sugar beets. The format is in vivo. Conditions: about 94 kilograms per hectare, dissolved in irrigation water. How it is done: Sugar beets, infested with sugar beet cyst nematodes (Heterodera spp.), were treated by application to the soil of about 94 kilograms per hectare of CaCS₄, dissolved in irrigation water.

In another data set the test system is tomato plants. Put plainly: Greenhouse nematocide experiment, plant dry weight / phytotoxicity. Conditions: Application 50 ppm; 37 days of growth. In kind it is in vivo. From the text: (§5) Eighty containers were used, each containing about 500 grams of sterilized sandy loam soil. Each container was given four 5-milliliter injections of extract from nematode-infested pepper roots, one inch below the soil surface, producing an initial population of 2000 root-knot nematode larvae per container.
(§6) Twenty treatments were replicated four times, each treatment consisting of solution injection into the soil at a two inch depth. The treatments included each of the six compositions from Example 3 at three levels, plus one level of the known nematocide 1,2-dibromo-3-chloropropane (DBCP), and a control with only water injected. After injection, each container was enclosed in a plastic bag and placed in the shade for three days. Upon removing the bags, the soils were aerated by stirring and were allowed to stand undisturbed for eight additional days. Following an additional aeration, a tomato seedling was planted in eac pot.
(§7) Each container received 25 milligrams nitrogen (as calcium nitrate) immediately after planting, followed by 2 grams of a slow release complete fertilizer. […] By use of a magnifying glass, the number of root galls was counted on each plant. […]
(§8) The results are shown in the following table, in which the "Application" represents milligrams of treatment per kilogram of soil, calculated as contained carbon disulfide for the Example 3 solutions. […]

Data set [7] relates to root-knot nematode larvae. The data set can be described thus: Greenhouse nematocide experiment with tomato plants, root gall count. The format is in vivo. The note with it: Application 50 ppm; mean of four replicates; asterisk = statistically indistinguishable.
Excerpt: as §5, §6, §7, §8

The mark [8] stands for this setting: pH 5.2, 125 milligrams of thiocarbonate ion per liter.
[9] abbreviates: pH 8.0, CaCS4 values above pH 7 called unreliable.

`S=C=S` [CS₂, carbon disulfide, reference compound]: the “Half-life (minutes) for production of carbon disulfide” value in [1] (setting [8]), in data set [1] (pH 6.0), in data set [1] (pH 7.0) and in data set [1] (setting [9]) was 1 min each time. Further, the “Degradation Time” value in data set [2] (Soil Moisture 50 % of Saturation) and in [2] (Soil Moisture 100 % of Saturation) was 3.5 h throughout. Moreover, the “k, first order rate constant for loss of carbon disulfide” value in [3] came out at 2.0 h⁻¹.

Turning to `S=C(S)SS` [CaCS₄, calcium tetrathiocarbonate], the “Half-life (minutes) for production of carbon disulfide” value came to 1 min in data set [1] (setting [8]), 1.8 min in data set [1] (pH 6.0), 2.7 min in data set [1] (pH 7.0) and 8.0 min in data set [1] (setting [9]). Also, in data set [4], the “urea dissolved by the solution” value was found to be 122 percent by weight. Moreover, in data set [2] (Soil Moisture 0 % of Saturation, hours to maximum CS2 concentration in the air space), the “Degradation Time” value came out at 4 h. In addition, in data set [5], the “nitrification of urea in the treated soil” value is reported as “nitrified more slowly”. The minimal effective concentration with Fusarium spp. was below 10000 µg/mL. In addition, the “Percent Control Sclerotium rolfsii” value in the data set on Sclerotium rolfsii (1 g/l) is recorded as 46%; with Sclerotium rolfsii (10 g/l), 62%. Moreover, the “Percent Control Verticillium dahliae” value in the data set on Verticillium dahliae (1 g/l) was found to be 13%; in the data set with Verticillium dahliae (10 g/l), 22%. Besides, the “Percent Control Fusarium oxysporum” value worked out at 3% in the data set on Fusarium oxysporum (1 g/l), 18% in the data set on Fusarium oxysporum (10 g/l) and 100% in the data set with Fusarium oxysporum (100 g/l thiocarbonate solution per liter of diluted solution). Further, the “Percent Control Phytophthora cinnamomi” value in the data set with Phytophthora cinnamomi (1 g/l) and with Phytophthora cinnamomi (10 g/l) was 56% throughout. For the same molecule, in data set [6], the “counts and viability of nematode larvae in the soil following treatment” value was “remained high, but the larvae were not viable”.

For `ClCC(Br)CBr` (stereo not shown) [DBCP, 1,2-dibromo-3-chloropropane], in the data set with tomato plants, the “Dry Weight, Grams Roots” value amounted to 0.273 Grams and the “Dry Weight, Grams Total” value is 1.238 Grams. Also, the “Gall Count” value in [7] is reported as 0*.
